Here are results for 49 molecules from US20250066389A1, “HETEROCYCLIC AMIDES AND METHODS OF USING THE SAME” (Rgenta Therapeutics, Inc., priority 2021, published 2025).

pIC50: −log10 of the molar value. Where a name gives a salt, the structure may show the parent alone.

The assay has as its system PMS1. The assay can be described thus: Mini-Gene Reporter Assay—PMS1 (firefly luciferase mini-gene reporter transiently transfected into HEK293 cells). Type of assay: cell-based. The following applies: Homo sapiens, mini-gene firefly luciferase reporter in HEK293 cells; for activation at 5 µM: read-out: PMS1 % Effect at 5 uM. The method, boiled down:
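Luminescence (RLU) read-out of exon inclusion: compound dilutions, tested in duplicate, act on transiently transfected HEK293 cells carrying a firefly luciferase reporter fused downstream of the PMS1 skipped-exon region. Potency derived by Levenberg-Marquardt curve fitting, with percent effect at 5 μM.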
(A reporter such as luciferase makes a cellular process visible.)

As a reminder, the pIC50 is the IC50 on a negative log10 scale, so that one unit is a factor of ten. A lower pIC50 goes with a high IC50. In turn, `CCOc1cc2nc(C)cn2cc1C(=O)Nc1ccc(N2CC(C)NCC2C)nn1` (stereo not shown) [Compound 281] showed a pIC50 of 5.00 to 6.00.
As to `CCOc1cn2nc(C)cc2cc1C(=O)Nc1cnc(N2CCC(NC)C2)cn1` (stereo not shown) [Compound 546], the activation at 5 µM was > 75%.
Same read-out and setting: for `CCOc1cc2nc(C)cn2cc1C(=O)Nc1cnc(N2CCCC(NC)C2)cn1` (stereo not shown) [Compound 690] the value was 50 to 75%; for `CCOc1cc2nn(C)cc2cc1C(=O)Nc1cnc(N2C[C@H](O)C[C@@H]2CN)nc1` [Compound 433], < 50%.
The same measure, in the same setting: for `CCOc1cn2nc(C)cc2cc1C(=O)Nc1ccc(N2CCNC(C)(C)C2)nn1` [Compound 755, N-(6-(3,3-dimethylpiperazin-1-yl)pyridazin-3-yl)-6-ethoxy-2-methylpyrazolo[1,5-a]pyridine-5-carboxamide hydrochloride] the value was > 75%.
With `COc1cc2nc(C)cn2cc1C(=O)Nc1ccc(N2CCC3(CCCN3)CC2)cc1F` [Compound 132, N-(2-fluoro-4-(1,8-diazaspiro[4.5]decan-8-yl)phenyl)-7-methoxy-2-methylimidazo[1,2-a]pyridine-6-carboxamide], the pIC50 was > 6.00.
As to `Cc1cn2cc(C(=O)Nc3ccc(N4C[C@H]5CC[C@@H](C4)N5)cc3F)ncc2n1` [Compound 106, N-(4-((1R,5S)-3,8-diazabicyclo[3.2.1]octan-3-yl)-2-fluorophenyl)-2-methylimidazo[1,2-a]pyrazine-6-carboxamide], the activation at 5 µM is < 50%.
For the molecule `CCOc1cc2nc(C)cn2cc1C(=O)Nc1ccc(N2CCN(C3CNC3)CC2)nn1` [Compound 272], the pIC50 is 5.00 to 6.00.
On the same count and under the same terms, for `COc1cc2nc(C)cn2cc1C(=O)Nc1cnc(N2CCNCC2)nc1` [Compound 120, 7-methoxy-2-methyl-N-(2-(piperazin-1-yl)pyrimidin-5-yl)imidazo[1,2-a]pyridine-6-carboxamide] the value was 5.00 to 6.00.
Regarding `CCOc1cn2nc(C)cc2cc1C(=O)Nc1cnc(NCCNC)nc1` [Compound 592], the activation at 5 µM is < 50%.
For `CCOc1cc2nn(C)cc2cc1C(=O)Nc1cnc(N2CCC3(CCNCC3)C2)nc1` [Compound 454], the activation at 5 µM was < 50%.
As to `CCOc1cc2nc(C)cn2cc1C(=O)Nc1ccc(N2CCNC3CC32)nn1` (stereo not shown) [Compound 258], the pIC50 is 5.00 to 6.00.
`CCOc1cc2nn(C)cc2cc1C(=O)Nc1cnc(NC(C)CC2CC3CCC(C2)N3)cn1` (stereo not shown) [Compound 311]: the activation at 5 µM was < 50%.
With `CCOc1cn2nc(C)cc2cc1C(=O)Nc1ccc(N2CCN[C@@H](C)C2)nn1` [Compound 215, (S)-6-ethoxy-2-methyl-N-(6-(3-methylpiperazin-1-yl)pyridazin-3-yl)pyrazolo[1,5-a]pyridine-5-carboxamide HCl Salt], the pIC50 was > 6.00.
Turning to `CCOc1nc2nn(C)cc2cc1C(=O)Nc1ccc(N2CCNCC2)nn1` [Compound 715, 6-ethoxy-2-methyl-N-(6-(piperazin-1-yl)pyridazin-3-yl)-2H-pyrazolo[3,4-b]pyridine-5-carboxamide], the pIC50 was > 6.00.
`CCOc1cc2nn(C)cc2cc1C(=O)Nc1cnc(N(C)CCNC)nc1` [Compound 484]: the activation at 5 µM is < 50%.
Regarding `Cc1cn2cc(C(=O)Nc3ccc(N4CCNCC4)cn3)c(OC3CCC3)cc2n1` [Compound 128, 7-cyclobutoxy-2-methyl-N-(5-(piperazin-1-yl)pyridin-2-yl) imidazo[1,2-a]pyridine-6-carboxamide hydrochloride], the pIC50 was > 6.00.
`CCOc1cc2nc(C)cn2cc1C(=O)Nc1cnc(N2CC(O)(CNC)C2)cn1` [Compound 662]: the activation at 5 µM is > 75%.
On the same count and under the same terms, for `COCC1CNCCN1c1ccc(NC(=O)c2cn3cc(C)nc3cc2OC)c(F)c1` (stereo not shown) [Compound 144, N-(2-fluoro-4-(2-(methoxymethyl)piperazin-1-yl)phenyl)-7-methoxy-2-methylimidazo[1,2-a]pyridine-6-carboxamide] the value was 50 to 75%.
Consider `CCOc1cc2nc(C)cn2cc1C(=O)Nc1ccc(N2CCC3(CNC3)C2)nn1` [Compound 271], for which the pIC50 was 5.00 to 6.00.
With `CCOc1cn2nc(C)cc2cc1C(=O)Nc1cnc(N2C[C@H]3CNC[C@H]3C2)nc1` [Compound 590], the activation at 5 µM was > 75%.
In the case of `CCOc1cc2nn(C)cc2cc1C(=O)Nc1ccc(C2CCN[C@@H](C)C2)nn1` (stereo partly drawn) [Compound 717, 6-ethoxy-2-methyl-N-(6-((2S)-2-methylpiperidin-4-yl)pyridazin-3-yl)-2H-indazole-5-carboxamide], the pIC50 was > 6.00.
Still for that read-out and setting: for `CCOc1cc2nc(C)cn2cc1C(=O)Nc1ccc(N2CC3CCCC(C2)NC3)nn1` (stereo not shown) [Compound 248] the value was 5.00 to 6.00.
Consider `CCOc1cn2nc(C)cc2cc1C(=O)Nc1cnc(NCC2CCNC2)cn1` (stereo not shown) [Compound 550], for which the activation at 5 µM is > 75%.
Take `COc1cc2nc(C)cn2cc1C(=O)Nc1ccc(N2C[C@H]3CNC[C@H]3C2)cc1F` [Compound 161, N-(2-fluoro-4-((3aR,6aS)-hexahydropyrrolo[3,4-c]pyrrol-2(1H)-yl)phenyl)-7-methoxy-2-methylimidazo[1,2-a]pyridine-6-carboxamide]: the activation at 5 µM was > 75%.
The same measure, in the same setting: for `CCOc1cn2nc(C)cc2cc1C(=O)Nc1cnc(NCC[C@@H]2CCNC2)cn1` [Compound 516] the value was < 50%.
As for `COc1cc2nc(C)cn2cc1C(=O)Nc1ccc(N2C[C@@H](C)N[C@@H](C)C2)cn1` [Compound 724, N-(5-((3R,5S)-3,5-dimethylpiperazin-1-yl)pyridin-2-yl)-7-methoxy-2-methylimidazo[1,2-a]pyridine-6-carboxamide], the negative-log IC50 (pIC50) was 5.00 to 6.00.
Still for that read-out and setting: for `COc1cc2nc(C)cn2cc1C(=O)Nc1ccc(N2CCNC(C)C2C)cc1F` (stereo not shown) [Compound 157, N-(4-(2,3-dimethylpiperazin-1-yl)-2-fluorophenyl)-7-methoxy-2-methylimidazo[1,2-a]pyridine-6-carboxamide] the value was > 6.00.
On to `COc1cc2nc(C)cn2cc1C(=O)Nc1ccc(N2CCC3NCCCC3C2)cc1F` (stereo not shown) [Compound 131, N-(2-fluoro-4-(octahydro-1,6-naphthyridin-6(2H)-yl)phenyl)-7-methoxy-2-methylimidazo[1,2-a]pyridine-6-carboxamide], for which the activation at 5 µM lay in the range of 50 to 75%.
Same read-out and setting: for `CCOc1cc2nc(C)cn2cc1C(=O)Nc1cnc(N2CCC3(CCNCC3)C2)cn1` [Compound 685] the value was 50 to 75%.
For `CCOc1cn2nc(C)cc2cc1C(=O)Nc1cnc(NCC2CCCNC2)nc1` (stereo not shown) [Compound 598], the activation at 5 µM is < 50%.
Take `CCOc1nc2nc(C)cn2cc1C(=O)Nc1ccc(N2CCN[C@@H](C)C2)nn1` [Compound 224, (S)-7-ethoxy-2-methyl-N-(6-(3-methylpiperazin-1-yl)pyridazin-3-yl)imidazo[1,2-a]pyrimidine-6-carboxamide hydrochloride]: the pIC50 was > 6.00.
Consider `CCOc1cn2nc(C)cc2cc1C(=O)Nc1cnc(NCC(N)c2ccc(F)cc2)nc1` (stereo not shown) [Compound 570], for which the activation at 5 µM was < 50%.
On to `CCOc1cc2nn(C)cc2cc1C(=O)Nc1cnc(N2CC(C)NCC2C)nc1` (stereo not shown) [Compound 453], for which the activation at 5 µM is 50 to 75%.
The same measure, in the same setting: for `CCOc1cn2nc(C)cc2cc1C(=O)Nc1cnc(N2CCOC3(CCCNC3)C2)cn1` (stereo not shown) [Compound 510] the value was < 50%; for `CCOc1cc2nn(C)cc2cc1C(=O)Nc1cnc(NCC2CC3CCC2N3)cn1` (stereo not shown) [Compound 304], > 75%.
As for `COc1cc2nn(C)cc2cc1C(=O)Nc1ccc(N2CCN[C@@H](C)C2)nn1` [Compound 125, (S)-6-methoxy-2-methyl-N-(6-(3-methylpiperazin-1-yl)pyridazin-3-yl)-2H-indazole-5-carboxamide hydrochloride], the pIC50 is > 6.00.
Consider `CCOc1cn2nc(C)cc2cc1C(=O)Nc1cnc(N2CC(N3CCNCC3)C2)cn1` [Compound 541], for which the activation at 5 µM is < 50%.
Same read-out and setting: for `CCOc1cc2nc(C)cn2cc1C(=O)Nc1ccc(N2CC3CNCC3C2)nn1` (stereo not shown) [Compound 748, (7-ethoxy-N-(6-(hexahydropyrrolo[3,4-c]pyrrol-2(1H)-yl)pyridazin-3-yl)-2-methylimidazo[1,2-a]pyridine-6-carboxamide formate] the value was > 75%.
Same read-out and setting: for `CCOc1cn2nc(C)cc2cc1C(=O)Nc1cnc(N2CCOC3(CCCNC3)C2)nc1` (stereo not shown) [Compound 613] the value was < 50%.
On to `CCOc1cc2nn(C)cc2cc1C(=O)Nc1cnc(NCCCN2CCNCC2)cn1` [Compound 362], for which the activation at 5 µM was < 50%.
On the same count and under the same terms, for `CCOc1cc2nn(C)cc2cc1C(=O)Nc1cnc(NCC2CCC3(CCNCC3)CC2)cn1` [Compound 329] the value was < 50%.
As to `CCOc1nc2nn(C)cc2cc1C(=O)Nc1cnc(N2CCNCC2)cn1` [Compound 742, 6-ethoxy-2-methyl-N-(5-(piperazin-1-yl)pyrazin-2-yl)-2H-pyrazolo[3,4-b]pyridine-5-carboxamide hydrochloride], the pIC50 was 5.00 to 6.00.
Consider `CCOc1cc2nn(C)cc2cc1C(=O)Nc1cnc(N2C[C@H]3CNC[C@H]3C2)nc1` [Compound 464], for which the activation at 5 µM lay in the range of 50 to 75%.
Consider `CCOc1cc2nc(C)cn2cc1C(=O)Nc1cnc(N2CC[C@@H](C)[C@@H](NC)C2)cn1` [Compound 671], for which the activation at 5 µM is < 50%.
For `CCOc1cc2nc(C)cn2cc1C(=O)Nc1ccc(N2CCC(CNC)C2)nn1` (stereo not shown) [Compound 266], the pIC50 is > 6.00.
As for `COc1cc2nc(C)cn2cc1C(=O)Nc1ccc(N2CC(CO)C3(CNC3)C2)cc1F` (stereo not shown) [Compound 134, N-(2-fluoro-4-(8-(hydroxymethyl)-2,6-diazaspiro[3.4]octan-6-yl)phenyl)-7-methoxy-2-methylimidazo[1,2-a]pyridine-6-carboxamide], the activation at 5 µM was < 50%.
As for `CCOc1cc2nc(C)cn2cc1C(=O)Nc1ccc(N2CCNC(CC)C2)nn1` (stereo not shown) [Compound 279], the pIC50 is > 6.00.
With `CCOc1cc2nc(C)cn2cc1C(=O)Nc1ccc(N2CCN(C)CC2)nn1` [Compound 729, 7-ethoxy-2-methyl-N-(6-(4-methylpiperazin-1-yl)pyridazin-3-yl)imidazo[1,2-a]pyridine-6-carboxamide], the pIC50 was 5.00 to 6.00.
